{"source": "paper PMC7915588", "about": "“Polyphyllin D Shows Anticancer Effect through a Selective Inhibition of Src Homology Region 2-Containing Protein Tyrosine Phosphatase-2 (SHP2)” (Molecules, 2021)", "key": {"SHP2": {"biological_target": "T1, SHP2 (Homo sapiens, UniProt Q06124)", "T1 construct": "gene PTPN11", "T1 sequence (Q06124 1-526)": "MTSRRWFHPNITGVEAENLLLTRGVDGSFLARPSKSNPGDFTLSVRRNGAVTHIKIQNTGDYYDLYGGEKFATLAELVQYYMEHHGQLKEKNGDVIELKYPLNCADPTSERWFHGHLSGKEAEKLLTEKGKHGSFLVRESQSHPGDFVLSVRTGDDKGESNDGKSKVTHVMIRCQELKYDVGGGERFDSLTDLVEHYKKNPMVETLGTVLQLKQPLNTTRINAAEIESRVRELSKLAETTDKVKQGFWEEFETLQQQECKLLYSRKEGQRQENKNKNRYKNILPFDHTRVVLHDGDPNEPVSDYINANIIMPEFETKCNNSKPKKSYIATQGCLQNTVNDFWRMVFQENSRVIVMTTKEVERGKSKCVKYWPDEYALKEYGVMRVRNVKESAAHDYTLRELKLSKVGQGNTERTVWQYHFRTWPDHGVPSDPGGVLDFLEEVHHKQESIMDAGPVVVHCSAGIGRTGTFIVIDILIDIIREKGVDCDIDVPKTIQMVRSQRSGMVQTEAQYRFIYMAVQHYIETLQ", "test": "DiFMUP fluorogenic phosphatase assay, dose-response and Hill plot", "format": "biochemical"}, "PTPN13 (PTP-BAS)": {"biological_target": "T2, PTPN13 (PTP-BAS) (Homo sapiens, UniProt Q12923)", "T2 construct": "2095-2490", "T2 sequence (Q12923 whole entry)": "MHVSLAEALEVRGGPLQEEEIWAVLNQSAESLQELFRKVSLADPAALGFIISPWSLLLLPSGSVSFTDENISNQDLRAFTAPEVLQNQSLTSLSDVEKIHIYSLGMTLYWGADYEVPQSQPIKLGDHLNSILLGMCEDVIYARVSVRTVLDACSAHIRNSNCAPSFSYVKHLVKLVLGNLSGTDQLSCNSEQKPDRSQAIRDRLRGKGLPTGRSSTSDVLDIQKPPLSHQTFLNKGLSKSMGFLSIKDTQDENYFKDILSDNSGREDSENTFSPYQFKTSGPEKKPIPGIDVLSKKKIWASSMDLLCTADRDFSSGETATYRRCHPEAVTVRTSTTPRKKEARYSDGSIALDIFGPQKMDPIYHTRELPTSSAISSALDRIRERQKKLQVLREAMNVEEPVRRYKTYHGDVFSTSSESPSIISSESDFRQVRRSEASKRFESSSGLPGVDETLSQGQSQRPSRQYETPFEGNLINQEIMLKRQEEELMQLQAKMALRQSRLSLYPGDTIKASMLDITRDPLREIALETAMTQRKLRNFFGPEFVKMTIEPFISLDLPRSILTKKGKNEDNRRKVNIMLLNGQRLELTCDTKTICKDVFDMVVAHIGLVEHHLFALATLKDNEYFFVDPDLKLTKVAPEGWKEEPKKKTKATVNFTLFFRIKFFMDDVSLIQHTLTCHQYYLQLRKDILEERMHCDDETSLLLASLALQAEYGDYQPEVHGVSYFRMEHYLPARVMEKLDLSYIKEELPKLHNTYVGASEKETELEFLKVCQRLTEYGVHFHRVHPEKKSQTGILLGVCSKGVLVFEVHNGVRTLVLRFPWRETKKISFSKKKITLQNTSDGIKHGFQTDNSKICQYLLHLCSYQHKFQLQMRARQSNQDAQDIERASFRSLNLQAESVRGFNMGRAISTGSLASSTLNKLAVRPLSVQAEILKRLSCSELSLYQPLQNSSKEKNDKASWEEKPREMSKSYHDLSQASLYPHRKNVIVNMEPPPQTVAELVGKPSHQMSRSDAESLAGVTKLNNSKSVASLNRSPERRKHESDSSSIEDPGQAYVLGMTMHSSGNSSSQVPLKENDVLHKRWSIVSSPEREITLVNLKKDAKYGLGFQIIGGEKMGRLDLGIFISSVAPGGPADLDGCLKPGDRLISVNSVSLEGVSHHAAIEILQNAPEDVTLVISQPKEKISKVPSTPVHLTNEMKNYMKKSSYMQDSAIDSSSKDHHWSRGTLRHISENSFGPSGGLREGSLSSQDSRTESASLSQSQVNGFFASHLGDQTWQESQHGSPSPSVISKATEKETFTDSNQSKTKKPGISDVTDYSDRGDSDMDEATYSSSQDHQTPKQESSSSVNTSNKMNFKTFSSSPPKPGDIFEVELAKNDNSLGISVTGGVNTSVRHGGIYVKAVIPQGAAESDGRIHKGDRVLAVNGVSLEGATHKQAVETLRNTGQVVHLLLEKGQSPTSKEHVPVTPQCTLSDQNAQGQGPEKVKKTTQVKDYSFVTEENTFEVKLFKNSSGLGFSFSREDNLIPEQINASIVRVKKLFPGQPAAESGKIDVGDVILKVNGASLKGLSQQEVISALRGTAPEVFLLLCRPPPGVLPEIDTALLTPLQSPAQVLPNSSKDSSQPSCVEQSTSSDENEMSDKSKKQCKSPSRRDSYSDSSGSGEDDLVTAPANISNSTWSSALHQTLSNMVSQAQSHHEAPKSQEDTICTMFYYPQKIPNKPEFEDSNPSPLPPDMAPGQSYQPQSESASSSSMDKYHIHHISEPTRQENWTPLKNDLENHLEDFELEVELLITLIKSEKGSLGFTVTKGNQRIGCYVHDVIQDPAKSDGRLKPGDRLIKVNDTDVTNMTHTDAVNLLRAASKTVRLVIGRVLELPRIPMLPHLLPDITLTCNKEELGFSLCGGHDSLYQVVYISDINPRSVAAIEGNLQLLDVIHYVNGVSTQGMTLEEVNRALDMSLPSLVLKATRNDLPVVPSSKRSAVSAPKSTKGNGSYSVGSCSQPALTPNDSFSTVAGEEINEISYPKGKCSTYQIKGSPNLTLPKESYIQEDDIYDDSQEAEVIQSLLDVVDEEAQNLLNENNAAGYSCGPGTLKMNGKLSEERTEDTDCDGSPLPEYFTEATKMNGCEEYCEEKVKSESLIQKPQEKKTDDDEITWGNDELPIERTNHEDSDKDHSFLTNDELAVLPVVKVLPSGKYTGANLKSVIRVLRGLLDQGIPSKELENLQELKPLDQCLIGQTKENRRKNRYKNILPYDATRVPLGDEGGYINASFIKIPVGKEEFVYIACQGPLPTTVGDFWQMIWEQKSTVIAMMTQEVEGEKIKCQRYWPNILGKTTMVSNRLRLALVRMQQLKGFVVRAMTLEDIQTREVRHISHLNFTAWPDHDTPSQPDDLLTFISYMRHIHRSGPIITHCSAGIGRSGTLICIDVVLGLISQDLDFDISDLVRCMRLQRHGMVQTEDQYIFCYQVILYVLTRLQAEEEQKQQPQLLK", "test": "biochemical", "set-up": "Fluorogenic phosphatase assay, DiFMUP hydrolysis by recombinant PTPs, initial velocity, Ex/Em 355/460 nm", "conditions": "read-out: Inhibition by 20 µM polyphyllin D (%)", "procedure": "(§1) Enzymatic reactions were initiated by the addition of SHP2 (final concentration of 10 nM) to a solution of each of the 658 phytochemical compounds (final concentration of 20 µM) in reaction buffer (20 mM bis-tris pH 6.0, 150 mM NaCl, 2.5 mM dithiothreitol, and 0.01% Triton X-100) containing DiFMUP (final concentration of 140 µM). Changes in the fluorescence intensities were measured continuously for 10 min at Ex/Em = 355/460 nm on a VictorTM X4 multilabel plate reader. Enzyme inhibition was estimated by comparing the reaction velocity in the presence of each compound with that in the absence of any compound. Inhibition of the other PTPs was measured in the same way. Next, we established a screening strategy using a DiFMUP substrate to identify a natural product that inhibits SHP2 activity. Initially, we screened 658 compounds at 20 µM using a 96-well plate system (Figure 2A). […] The selected compounds were tested at 20 µM for SHP2 inhibition, and 14 additional non-receptor-type PTPs (PTP1B, TCPTP, PTPH1, STEP, SHP1, HePTP, PTP-MEG2, PTP-PEST, PTP-BAS, PTP36, PTP-HSCF, PTPD1, LYP, and HD-PTP) were used to investigate the inhibition selectivity. The results were visualized using a heat map analysis by GraphPad Prism (Figure 2B and Table S2 in Supplementary Materials). To identify new SHP2 anticancer natural products, we first performed cloning to express SHP2 protein and then purified it. PTPN11 (Gene ID: 5781) encoding human SHP2 (amino acids sequences 1 to 526) with several extra amino acids were cloned into the MBP-pET 28a (+) vector, which was successfully used to overexpress PTPs with enhanced solubility in an Escherichia coli expression system. Information on amino acids for 15 non-receptor-type PTPs including SHP2 is summarized in Table S3 in the Supplementary Materials. SHP2 was overexpressed in RosettaTM (DE3) and purified using a metal affinity resin (Figure S1 in Supplementary Materials). […] The kcat, KM, and kcat/KM values were determined to be 270 min^−1, 70 μM, and 3.9 μM^−1min^−1, respectively, using the Lineweaver–Burk plot analysis (Table S1 in Supplementary Materials)."}, "PTPN3 (PTPH1)": {"biological_target": "T3, PTPN3 (PTPH1) (Homo sapiens, UniProt P26045)", "T3 construct": "403-913", "T3 sequence (P26045 1-913)": "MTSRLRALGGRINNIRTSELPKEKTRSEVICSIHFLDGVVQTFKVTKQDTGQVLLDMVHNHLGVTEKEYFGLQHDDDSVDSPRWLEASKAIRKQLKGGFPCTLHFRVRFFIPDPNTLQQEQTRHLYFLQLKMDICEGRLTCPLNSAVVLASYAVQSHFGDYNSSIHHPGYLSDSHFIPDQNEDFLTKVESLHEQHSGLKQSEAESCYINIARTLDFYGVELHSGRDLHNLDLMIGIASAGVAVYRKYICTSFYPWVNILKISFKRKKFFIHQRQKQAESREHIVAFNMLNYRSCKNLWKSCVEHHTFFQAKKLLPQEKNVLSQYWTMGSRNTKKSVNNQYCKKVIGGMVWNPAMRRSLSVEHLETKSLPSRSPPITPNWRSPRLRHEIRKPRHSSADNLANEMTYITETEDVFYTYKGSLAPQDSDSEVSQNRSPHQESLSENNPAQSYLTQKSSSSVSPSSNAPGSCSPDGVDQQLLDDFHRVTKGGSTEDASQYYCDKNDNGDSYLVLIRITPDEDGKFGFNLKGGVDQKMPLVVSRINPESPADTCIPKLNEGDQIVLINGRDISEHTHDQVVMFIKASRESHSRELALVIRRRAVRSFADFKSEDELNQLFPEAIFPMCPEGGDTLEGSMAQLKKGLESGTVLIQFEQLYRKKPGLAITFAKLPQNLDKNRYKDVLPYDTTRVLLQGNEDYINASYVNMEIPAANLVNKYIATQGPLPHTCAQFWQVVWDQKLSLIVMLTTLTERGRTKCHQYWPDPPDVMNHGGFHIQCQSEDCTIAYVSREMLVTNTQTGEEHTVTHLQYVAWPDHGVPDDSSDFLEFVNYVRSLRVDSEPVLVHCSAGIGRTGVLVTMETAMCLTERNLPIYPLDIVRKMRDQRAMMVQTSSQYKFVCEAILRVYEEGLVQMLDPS", "test": "biochemical", "set-up": "Fluorogenic phosphatase assay, DiFMUP hydrolysis by recombinant PTPs, initial velocity, Ex/Em 355/460 nm", "conditions": "read-out: Inhibition by 20 µM polyphyllin D (%)", "procedure": "as §1"}}}
{"molecule": "C[C@@H]1CC[C@@]2(OC1)O[C@H]1C[C@H]3[C@@H]4CC=C5C[C@@H](O[C@@H]6O[C@H](CO)[C@@H](O[C@@H]7O[C@@H](CO)[C@H](O)[C@H]7O)[C@H](O)[C@H]6O[C@@H]6O[C@@H](C)[C@H](O)[C@@H](O)[C@H]6O)CC[C@]5(C)[C@H]4CC[C@]3(C)[C@H]1[C@@H]2C", "note": "[polyphyllin D]", "values": [{"measurement": "IC50", "setting": "SHP2", "result": 15.3, "unit": "µM"}, {"measurement": "inhibition at 20 µM", "setting": "PTPN13 (PTP-BAS)", "result": 0, "unit": "%"}, {"measurement": "inhibition at 20 µM", "setting": "PTPN3 (PTPH1)", "result": 0, "unit": "%"}]}
